Laboratory results as given in patent US9073940B2, “Tricyclic pyrazol amine derivatives” (MERCK SERONO SA, priority 2009, dated 2015).

System: 4 PI3K isoforms (Human recombinant GST-PI3K)
Experiment: PI3K scintillation proximity assay, best IC50 obtained with the four isoforms (alpha, beta, delta, gamma)
Type: biochemical
Details: for Best potency measured on the 4 PI3K isoforms, % inh @20 μM: inhibition at 20 μM; for IC50: best IC50 obtained with the four isoforms of PI3K, read-out: Best potency measured on the 4 PI3K isoforms

| SMILES | Best potency measured on the 4 PI3K isoforms, % inh @20 μM | IC50 |
| --- | --- | --- |
| O=C(c1nn(-c2ccccc2)c2c1CS(=O)(=O)c1ccccc1-2)N1CCOc2ccccc21 [Example 335] | 13% inh @20 μM |  |
| CC1CN(C(=O)c2nn(-c3ccccc3)c3c2CS(=O)(=O)c2ccccc2-3)CC(C)O1 (stereo not drawn) [Example 337] | 11% inh @20 μM |  |
| CC1COCCN1C(=O)c1nn(-c2ccccc2)c2c1CS(=O)(=O)c1ccccc1-2 (stereo not drawn) [Example 338, 3-[(3-Methylmorpholin-4-yl)carbonyl]-1-phenyl-1,4-dihydrothiochromeno[4,3-c]pyrazole 5,5-dioxide] |  | 13900 nM |
| O=C(c1nn(-c2cccc(OCCn3cccn3)c2)c2c1CS(=O)(=O)c1ccccc1-2)N1CCOCC1 [Example 340, 3-(Morpholin-4-ylcarbonyl)-1-{3-[2-(1H-pyrazol-1-yl)ethoxy]phenyl}-1,4-dihydrothiochromeno[4,3-c]pyrazole 5,5-dioxide] |  | 445 nM |
| COCCOc1cccc(-n2nc(C(=O)N3CCOCC3)c3c2-c2ccccc2S(=O)(=O)C3)c1 [Example 341, 1-[3-(2-Methoxyethoxy)phenyl]-3-(morpholin-4-ylcarbonyl)-1,4-dihydrothiochromeno[4,3-c]pyrazole 5,5-dioxide] |  | 726 nM |
| O=C(c1nn(C2CCOC2)c2c1CS(=O)(=O)c1ccccc1-2)N1CCOCC1 (stereo not drawn) [Example 342, 3-(Morpholin-4-ylcarbonyl)-1-(tetrahydrofuran-3-yl)-1,4-dihydrothiochromeno[4,3-c]pyrazole 5,5-dioxide] |  | 890 nM |
| CC1COCCN1Cc1ccc(-n2nc(C(=O)N3CCOCC3)c3c2-c2ccccc2S(=O)(=O)C3)cc1 (stereo not drawn) [Example 357, 1-{4-[(3-Methylmorpholin-4-yl)methyl]phenyl}-3-(morpholin-4-ylcarbonyl)-1,4-dihydrothiochromeno[4,3-c]pyrazole 5,5-dioxide] |  | 180 nM |
| O=C(c1nn(-c2cccc(OCCn3ccnc3)c2)c2c1CS(=O)(=O)c1ccccc1-2)N1CCOCC1 [Example 360, 1-{3-[2-(1H-Imidazol-1-yl)ethoxy]phenyl}-3-(morpholin-4-ylcarbonyl)-1,4-dihydrothiochromeno[4,3-c]pyrazole 5,5-dioxide] |  | 179 nM |
| O=C(c1nn(C2CCOC2)c2c1CS(=O)(=O)c1c(F)cccc1-2)N1CCOCC1 (stereo not drawn) [Example 365, 6-Fluoro-3-(morpholin-4-ylcarbonyl)-1-(tetrahydrofuran-3-yl)-1,4-dihydrothiochromeno[4,3-c]pyrazole 5,5-dioxide] |  | 353 nM |
| O=C(c1nn([C@@H]2CCCN(CCN3CCOCC3)C2)c2c1CS(=O)(=O)c1c(Cl)cccc1-2)N1CCOCC1 [Example 387] |  | 5230 nM |
| O=C(c1nn(-c2ccc(CN3CCOCC3)cc2)c2c1CS(=O)(=O)c1ccc(F)cc1-2)N1CCOCC1 [Example 392, 8-Fluoro-3-(morpholin-4-ylcarbonyl)-1-[4-(morpholin-4-ylmethyl)phenyl]-1,4-dihydrothiochromeno[4,3-c]pyrazole 5,5-dioxide] |  | 555 nM |
| O=C(c1nn(C2CN3CCC2CC3)c2c1CS(=O)(=O)c1ccccc1-2)N1CCOCC1 (stereo not drawn) [Example 393] |  | 10200 nM |
| O=C(c1ccoc1)N1CCC[C@H](n2nc(C(=O)N3CCOCC3)c3c2-c2ccccc2S(=O)(=O)C3)C1 [Example 396] |  | 750 nM |
| O=C(c1nn([C@H]2CCCN(C(=O)C3CCOCC3)C2)c2c1CS(=O)(=O)c1ccccc1-2)N1CCOCC1 [Example 397] |  | 1500 nM |
| O=C(CC1CCOCC1)N1CCC[C@H](n2nc(C(=O)N3CCOCC3)c3c2-c2ccccc2S(=O)(=O)C3)C1 [Example 398] |  | 345 nM |
| O=C(CC1CCCCC1)N1CCC[C@H](n2nc(C(=O)N3CCOCC3)c3c2-c2ccccc2S(=O)(=O)C3)C1 [Example 399] |  | 735 nM |
| O=C(c1nn(C2CCCN(CC3CCOC3)C2)c2c1CS(=O)(=O)c1c(F)cccc1-2)N1CCOCC1 (stereo not drawn) [Example 404, 6-Fluoro-3-(morpholin-4-ylcarbonyl)-1-[1-(tetrahydrofuran-3-ylmethyl)piperidin-3-yl]-1,4-dihydrothiochromeno[4,3-c]pyrazole 5,5-dioxide] |  | 21 nM |
| O=C(c1nn(C2CN(CCC3CCOCC3)C2)c2c1CS(=O)(=O)c1ccccc1-2)N1CCOCC1 [Example 405, 3-(Morpholin-4-ylcarbonyl)-1-{1-[2-(tetrahydro-2H-pyran-4-yl)ethyl]azetidin-3-yl}-1,4-dihydrothiochromeno[4,3-c]pyrazole 5,5-dioxide] |  | 95 nM |

| SMILES | Best potency measured on the 4 PI3K isoforms, % inh @20 μM | IC50 |
| --- | --- | --- |
| O=C(c1nn(C2CCCN(CCn3cccn3)C2)c2c1CS(=O)(=O)c1c(F)cccc1-2)N1CCOCC1 (stereo not drawn) [Example 406, 6-Fluoro-3-(morpholin-4-ylcarbonyl)-1-{1-[2-(1H-pyrazol-1-yl)ethyl]piperidin-3-yl}-1,4-dihydrothiochromeno[4,3-c]pyrazole 5,5-dioxide] |  | 80 nM |
| O=C(c1nn(C2CN(CCN3CCOCC3)C2)c2c1CS(=O)(=O)c1ccccc1-2)N1CCOCC1 [Example 407, 3-(Morpholin-4-ylcarbonyl)-1-[1-(2-morpholin-4-ylethyl)azetidin-3-yl]-1,4-dihydrothiochromeno[4,3-c]pyrazole 5,5-dioxide] |  | 236 nM |
| O=C(c1nn(C2CCCN(CCC3CCOCC3)C2)c2c1CS(=O)(=O)c1ncccc1-2)N1CCOCC1 (stereo not drawn) [Example 408] |  | 61 nM |
| O=C(c1nn(C2CCCN(CCN3CCOCC3)C2)c2c1CS(=O)(=O)c1c(F)cccc1-2)N1CCOCC1 (stereo not drawn) [Example 413, 6-fluoro-3-(morpholin-4-ylcarbonyl)-1-[1-(2-morpholin-4-ylethyl)piperidin-3-yl]-1,4-dihydrothiochromeno[4,3-c]pyrazole 5,5-dioxide] |  | 16 nM |
| O=C(c1nn(C2CCCN(CCN3CC(F)(F)C3)C2)c2c1CS(=O)(=O)c1c(F)cccc1-2)N1CCOCC1 (stereo not drawn) [Example 414, 1-{1-[2-(3,3-Difluoroazetidin-1-yl)ethyl]piperidin-3-yl}-6-fluoro-3-(morpholin-4-ylcarbonyl)-1,4-dihydrothiochromeno[4,3-c]pyrazole 5,5-dioxide] |  | 38 nM |
| O=C(c1nn(C2CCCN(C3COC3)C2)c2c1CS(=O)(=O)c1ccccc1-2)N1CCOCC1 (stereo not drawn) [Example 415, 3-(Morpholin-4-ylcarbonyl)-1-(1-oxetan-3-ylpiperidin-3-yl)-1,4-dihydrothiochromeno[4,3-c]pyrazole 5,5-dioxide] |  | 67 nM |
| COCCN(C)Cc1ccc(-n2nc(C(=O)N3CCOCC3)c3c2-c2ccccc2S(=O)(=O)C3)cc1 [Example 426, 2-Methoxy-N-methyl-N-{4-[3-(morpholin-4-ylcarbonyl)-5,5-dioxidothiochromeno[4,3-c]pyrazol-1(4H)-yl]benzyl}ethanamine] |  | 113 nM |
| O=C(c1nn(-c2ccc(CN3CC(F)C3)cc2)c2c1CS(=O)(=O)c1ccccc1-2)N1CCOCC1 [Example 430, 1-{4-[(3-Fluoroazetidin-1-yl)methyl]phenyl}-3-(morpholin-4-ylcarbonyl)-1,4-dihydrothiochromeno[4,3-c]pyrazole 5,5-dioxide] |  | 229 nM |
| COCCNCc1ccc(-n2nc(C(=O)N3CCOCC3)c3c2-c2ccccc2S(=O)(=O)C3)cc1 [Example 431, 2-Methoxy-N-{4-[3-(morpholin-4-ylcarbonyl)-5,5-dioxidothiochromeno[4,3-c]pyrazol-1(4H)-yl]benzyl}ethanamine] |  | 164 nM |
| CC1CN(Cc2ccc(-n3nc(C(=O)N4CCOCC4)c4c3-c3ccccc3S(=O)(=O)C4)cc2)CCO1 (stereo not drawn) [Example 432, 1-{4-[(2-Methylmorpholin-4-yl)methyl]phenyl}-3-(morpholin-4-ylcarbonyl)-1,4-dihydrothiochromeno[4,3-c]pyrazole 5,5-dioxide] |  | 105 nM |
| CC1CN(Cc2ccc(-n3nc(C(=O)N4CCOCC4)c4c3-c3ccccc3S(=O)(=O)C4)cc2)CC(C)O1 (stereo not drawn) [Example 435, 1-{4-[(2,6-Dimethylmorpholin-4-yl)methyl]phenyl}-3-(morpholin-4-ylcarbonyl)-1,4-dihydrothiochromeno[4,3-c]pyrazole 5,5-dioxide] |  | 57 nM |
| O=C(c1nn(-c2ccc(CNC3CCOCC3)cc2)c2c1CS(=O)(=O)c1ccccc1-2)N1CCOCC1 [Example 436, N-{4-[3-(Morpholin-4-ylcarbonyl)-5,5-dioxidothiochromeno[4,3-c]pyrazol-1 (4H)-yl]benzyl}tetrahydro-2H-pyran-4-amine] |  | 107 nM |
| CC1(C)CN(Cc2ccc(-n3nc(C(=O)N4CCOCC4)c4c3-c3ccccc3S(=O)(=O)C4)cc2)CCO1 [Example 437, 1-{4-[(2,2-Dimethylmorpholin-4-yl)methyl]phenyl}-3-(morpholin-4-ylcarbonyl)-1,4-dihydrothiochromeno[4,3-c]pyrazole 5,5-dioxide] |  | 120 nM |
| CNCc1ccc(-n2nc(C(=O)N3CCOCC3)c3c2-c2ccccc2S(=O)(=O)C3)cc1 [Example 449, N-Methyl-1-{4-[3-(morpholin-4-ylcarbonyl)-5,5-dioxidothiochromeno[4,3-c]pyrazol-1 (4H)-yl]phenyl}methanamine] |  | 226 nM |
| COc1ccc2c(c1)-c1c(c(C(=O)N3CCOCC3)nn1C1CCCN(CCN3CCOCC3)C1)CS2(=O)=O (stereo not drawn) [Example 453, 8-methoxy-3-(morpholin-4-ylcarbonyl)-1-[1-(2-morpholin-4-ylethyl)piperidin-3-yl]-1,4-dihydrothiochromeno[4,3-c]pyrazole 5,5-dioxide] |  | 28 nM |
| O=C(c1nn(-c2ccc(CNC3CCCOC3)cc2)c2c1CS(=O)(=O)c1ccccc1-2)N1CCOCC1 (stereo not drawn) [Example 455, N-{4-[3-(Morpholin-4-ylcarbonyl)-5,5-dioxidothiochromeno[4,3-c]pyrazol-1(4H)-yl]benzyl}tetrahydro-2H-pyran-3-amine] |  | 224 nM |
| O=C(c1nn(-c2ccc(CNC3CCOC3)cc2)c2c1CS(=O)(=O)c1ccccc1-2)N1CCOCC1 (stereo not drawn) [Example 456, N-{4-[3-(Morpholin-4-ylcarbonyl)-5,5-dioxidothiochromeno[4,3-c]pyrazol-1(4H)-yl]benzyl}tetrahydrofuran-3-amine] |  | 156 nM |
| CC(C)(c1ccc(-n2nc(C(=O)N3CCOCC3)c3c2-c2ccccc2S(=O)(=O)C3)cc1)N1CCOCC1 [Example 457, 1-[4-(1-Methyl-1-morpholin-4-ylethyl)phenyl]-3-(morpholin-4-ylcarbonyl)-1,4-dihydrothiochromeno[4,3-c]pyrazole 5,5-dioxide] |  | 584 nM |
